{
  "source": "paper PMC11653702",
  "about": "“Targeting the SPC25/RIOK1/MYH9 Axis to Overcome Tumor Stemness and Platinum Resistance in Epithelial Ovarian Cancer” (Advanced Science, 2024)",
  "key": {"[1]": {"tested_on": "MYH9 phosphorylation at Ser1943", "test": "Western blotting, phosphorylation of MYH9 at Ser1943 under CX-4945, OVCAR3 and OVCAR8", "type": "cell-based, human", "conditions": "CX-4945 6 μM, OVCAR3 and OVCAR8 cells with SPC25 overexpression or silencing", "experimental": "(§1) Western Blotting: Western blotting was performed using primary antibodies detailed in Table S5 (Supporting Information). Western blotting grayscale analyses were performed using ImageJ (version 2.0.0; NIH, Bethesda, MD, USA). β-Catenin expression was quantified by determining the gray level of each band using Image J and normalized using α-tubulin.\nFigure S6. A) Exogenous IP assays performed to assess Ser/Thr phosphorylation status of MYH9-Myc in HEK293FT cells with or without SPC25-Flag expression. B) Quantification of nuclear or cellular fluorescence of reexpressed GFP-MYH9-WT with NLS2-2A and NLS2-3A mutants in MYH9-silenced OVCAR3 cells with or without SPC25 overexpression. C) qRT-PCR of MYH9 in OVCAR8 and SKOV3 cells with exogenous expression of MYH9 mutant variants. D) qRT-PCR of MYH9 in MYH9-silenced OVCAR3 and OVCAR8 cells with reexpression of MYH9-WT or MYH9-S1943A. E) qRT-PCR of CTNNB1 in MYH9-silenced OVCAR8 cells with reexpression of MYH9-WT or MYH9-S1943A under SPC25 silencing (left). TOP/FOP Flash analysis in MYH9-silenced OVCAR8 cells with reexpression of MYH9-WT or MYH9-S1943A under SPC25 silencing (right). F) Endogenous phosphorylation status of MYH9 at Ser1943 in OVCAR3 and OVCAR8 cells under escalating doses of CX-4945 examined through Western blotting. […]"}, "casein kinase II (CKII)": {"target": "casein kinase II (CKII)", "test": "Inhibition of endogenous CKII kinase activity", "type": "cell-based, human", "conditions": "OVCAR3 and OVCAR8 cells", "experimental": "as §1"}, "[2]": {"test": "Serum urea, creatinine, alanine aminotransferase, aspartate aminotransferase (hepatorenal function)", "conditions": "for ALT / AST / CRE (creatinine) / UREA: mice under CBP1 treatment, after 6 weeks", "from_the_text": "Subsequently, we established a BALB/c‐Nude mouse model of EOC by intraperitoneally injecting OVCAR8 cells stably expressing a luciferase gene, as described previously. On reaching a bioluminescence signal of 2 × 10^7 p/s/cm^2/sr, mice were divided into 4 treatment groups: Vehicle, CBP1, CDDP, and CDDP/CBP1 (n = 7 per group; Figure 5I).\nH) Serum urea, creatinine, alanine aminotransferase, and aspartate aminotransferase levels in normal and CBP1-treated nude mice assessed to evaluate hepatorenal function. […] Error bars represent the means ± SD of independent experiments; ns denotes not significant. In (A) and (H), two-sided Student’s t test was used."}, "[3]": {"tested_on": "EOC organoids (HGS-202, HGS-203, HGS-107)", "test": "Cell Counting Kit-8 assay in EOC patient-derived organoids", "type": "cell-based", "conditions": "EOC organoids HGS-202, HGS-203, HGS-107, compared with controls"}, "SPC25": {"target": "T1, SPC25 (Homo sapiens, UniProt Q9HBM1)", "T1 sequence (Q9HBM1 1-224)": "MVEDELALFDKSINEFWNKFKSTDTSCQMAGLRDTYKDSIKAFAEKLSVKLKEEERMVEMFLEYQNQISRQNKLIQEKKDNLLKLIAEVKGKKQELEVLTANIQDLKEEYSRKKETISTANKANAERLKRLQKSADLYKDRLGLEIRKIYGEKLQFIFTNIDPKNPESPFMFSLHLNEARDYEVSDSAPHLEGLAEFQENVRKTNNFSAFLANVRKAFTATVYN", "test": "Surface plasmon resonance, CBP1 binding to SPC25", "conditions": "SPR, BIAcore T200, CBP1 binding to SPC25; read-out: dissociation constant Kd", "experimental": "Analysis of Surface Plasmon Resonance: Analysis of Surface Plasmon Resonance Binding kinetics between SPC25 and the indicated peptide-CBP1 were measured by Surface Plasmon Resonance (SPR) using a BIAcore T200 instrument (GE Healthcare, CA, USA). The dissociation constant (Kd) was calculated according to the BIA-evaluation software."}, "[4]": {"test": "Survival of non-tumor-bearing mice on CBP1", "type": "in vivo, BALB/c-Nude mice", "set-up": "key to Survival status: 0: Alive; 1: Dead", "conditions": "for Survival status / Survival time (Days after CDDP treatment): CBP1 10mg/kg; for Survival status: day 42; for Survival time (Days after CDDP treatment): alive at this day"}, "[5]": {"conditions": "10 mg/kg, i.p., once every 2 days, 6 weeks, BALB/c-Nude mice without tumors"}},
  "note": "Peptide text beside a SMILES is read from it.",
  "data": [
    {"smiles": "O=C(O)c1ccc2c(c1)nc(Nc1cccc(Cl)c1)c1ccncc12", "note": "[CX-4945]", "values": [
      {"measurement": "SPC25-mediated promotion of MYH9 phosphorylation at Ser1943", "setting": "[1]", "value": "persisted"},
      {"measurement": "kinase activity of endogenous CKII", "setting": "casein kinase II (CKII)", "value": "completely inhibited"}
    ]},
    {"smiles": "CC[C@H](C)[C@H](NC(=O)[C@H](Cc1ccc(O)cc1)NC(=O)[C@H](C)NC(=O)CNC(=O)CNC(=O)[C@H](Cc1c[nH]c2ccccc12)NC(=O)[C@@H]1CCCN1C(=O)[C@H](CO)NC(=O)[C@@H](NC(=O)[C@H](Cc1ccc(O)cc1)NC(=O)[C@H](CC(C)C)NC(=O)[C@@H](N)Cc1c[nH]cn1)C(C)C)C(=O)N1CCC[C@H]1C(=O)N[C@@H](CCCNC(=N)N)C(=O)N[C@H](C(=O)N[C@@H](CC(C)C)C(=O)N[C@@H](CC(N)=O)C(=O)N[C@@H](CCC(=O)O)C(=O)N[C@H](C(=O)N[C@@H](CCCCN)C(=O)N[C@@H](CC(N)=O)C(=O)N[C@@H](Cc1ccc(O)cc1)C(=O)N[C@@H](CCC(=O)O)C(=O)N[C@@H](CCCNC(=N)N)C(=O)O)C(C)C)[C@@H](C)O", "note": "[CBP1] (H-HLYVSPWGGAYIPRTLNEVKNYER-OH)", "values": [
      {"measurement": "hepatorenal toxicity", "setting": "[2]; [5]", "value": "did not cause considerable hepatorenal toxicity"},
      {"measurement": "ALT", "setting": "[2]; animal #1", "value": 61.601, "unit": "U/L"},
      {"measurement": "AST", "setting": "[2]; animal #1", "value": 95.798, "unit": "U/L"},
      {"measurement": "CRE (creatinine)", "setting": "[2]; animal #1", "value": 0.334, "unit": "mg/dL"},
      {"measurement": "UREA", "setting": "[2]; animal #1", "value": 19.36, "unit": "mg/dL"},
      {"measurement": "ALT", "setting": "[2]; animal #2", "value": 48.846, "unit": "U/L"},
      {"measurement": "AST", "setting": "[2]; animal #2", "value": 169.051, "unit": "U/L"},
      {"measurement": "CRE (creatinine)", "setting": "[2]; animal #2", "value": 0.381, "unit": "mg/dL"},
      {"measurement": "UREA", "setting": "[2]; animal #2", "value": 24.41, "unit": "mg/dL"},
      {"measurement": "ALT", "setting": "[2]; animal #3", "value": 37.083, "unit": "U/L"},
      {"measurement": "AST", "setting": "[2]; animal #3", "value": 149.075, "unit": "U/L"},
      {"measurement": "CRE (creatinine)", "setting": "[2]; animal #3", "value": 0.362, "unit": "mg/dL"},
      {"measurement": "UREA", "setting": "[2]; animal #3", "value": 17.46, "unit": "mg/dL"},
      {"measurement": "ALT", "setting": "[2]; animal #4", "value": 56.136, "unit": "U/L"},
      {"measurement": "AST", "setting": "[2]; animal #4", "value": 97.689, "unit": "U/L"},
      {"measurement": "CRE (creatinine)", "setting": "[2]; animal #4", "value": 0.247, "unit": "mg/dL"},
      {"measurement": "UREA", "setting": "[2]; animal #4", "value": 15.11, "unit": "mg/dL"},
      {"measurement": "ALT", "setting": "[2]; animal #5", "value": 58.209, "unit": "U/L"},
      {"measurement": "AST", "setting": "[2]; animal #5", "value": 124.231, "unit": "U/L"},
      {"measurement": "CRE (creatinine)", "setting": "[2]; animal #5", "value": 0.314, "unit": "mg/dL"},
      {"measurement": "UREA", "setting": "[2]; animal #5", "value": 16.87, "unit": "mg/dL"},
      {"measurement": "ALT", "setting": "[2]; animal #6", "value": 57.394, "unit": "U/L"},
      {"measurement": "AST", "setting": "[2]; animal #6", "value": 120.889, "unit": "U/L"},
      {"measurement": "CRE (creatinine)", "setting": "[2]; animal #6", "value": 0.253, "unit": "mg/dL"},
      {"measurement": "UREA", "setting": "[2]; animal #6", "value": 21.13, "unit": "mg/dL"},
      {"measurement": "ALT", "setting": "[2]; animal #7", "value": 54.623, "unit": "U/L"},
      {"measurement": "AST", "setting": "[2]; animal #7", "value": 133.397, "unit": "U/L"},
      {"measurement": "CRE (creatinine)", "setting": "[2]; animal #7", "value": 0.252, "unit": "mg/dL"},
      {"measurement": "UREA", "setting": "[2]; animal #7", "value": 15.13, "unit": "mg/dL"},
      {"measurement": "CDDP cytotoxicity in presence of CBP1", "setting": "[3]", "value": "markedly enhanced CDDP cytotoxicity"},
      {"measurement": "Kd", "setting": "SPC25", "value": "13.3 ± 2.88", "unit": "µM"},
      {"measurement": "effect on survival of normal mice", "setting": "[4]; [5]", "value": "did not cause considerable hepatorenal toxicity or affect survival in the mice"},
      {"measurement": "Survival status", "setting": "[4]; animal 1", "value": 0},
      {"measurement": "Survival status", "setting": "[4]; animal 2", "value": 0},
      {"measurement": "Survival status", "setting": "[4]; animal 3", "value": 0},
      {"measurement": "Survival status", "setting": "[4]; animal 4", "value": 0},
      {"measurement": "Survival status", "setting": "[4]; animal 5", "value": 0},
      {"measurement": "Survival status", "setting": "[4]; animal 6", "value": 0},
      {"measurement": "Survival status", "setting": "[4]; animal 7", "value": 0},
      {"measurement": "Survival time (Days after CDDP treatment)", "setting": "[4]; animal 1", "value": "≥ 42", "unit": "days"},
      {"measurement": "Survival time (Days after CDDP treatment)", "setting": "[4]; animal 2", "value": "≥ 42", "unit": "days"},
      {"measurement": "Survival time (Days after CDDP treatment)", "setting": "[4]; animal 3", "value": "≥ 42", "unit": "days"},
      {"measurement": "Survival time (Days after CDDP treatment)", "setting": "[4]; animal 4", "value": "≥ 42", "unit": "days"},
      {"measurement": "Survival time (Days after CDDP treatment)", "setting": "[4]; animal 5", "value": "≥ 42", "unit": "days"},
      {"measurement": "Survival time (Days after CDDP treatment)", "setting": "[4]; animal 6", "value": "≥ 42", "unit": "days"},
      {"measurement": "Survival time (Days after CDDP treatment)", "setting": "[4]; animal 7", "value": "≥ 42", "unit": "days"}
    ]}
  ]
}
